According to publication PMC6268079, “Synthesis and Biological Evaluation of 2-(3-Fluoro-4-nitro phenoxy)-N-phenylacetamide Derivatives as Novel Potential Affordable Antitubercular Agents” (Molecules, 2012):
Converted amounts (≈) assume the structure as drawn. Read-outs that look alike come from different tables or passages of the source.

What was measured:
[1] = system: HCT116 colorectal carcinoma cells; test: MTT-based cytotoxicity assay, HCT116; assay type: cell-based; details: Homo sapiens
Description: (§1) Briefly, cells (2,500/well) were seeded in 96-well plates and cultured for 24 h, followed by treatment with the target compounds for another 48 h. MTT ([…], 20 μL) was added per well and incubated for another 2.5 h at 37 °C. Then the supernatant fluid was removed and 150 μL/well DMSO was added for 15–20 min. The absorbance (OD) of each well was measured at 570 nm, using a SpectraMAX M5 microplate spectrophotometer (Molecular Devices, Sunnyvale, CA, USA). The IC50 Values are means ± SEM of three independent experiments.

[2] = system: M. tuberculosis H37Rv (ATCC 27294); test: Antitubercular activity by microdilution method, M. tuberculosis H37Rv; assay type: cell-based; details: Mycobacterium tuberculosis, 264 h, growth similar to well inoculated with 10 CFU, read after 11 days by visual investigation, three replicates
[3] = system: Vero normal African green monkey kidney epithelial cells; test: MTT-based cytotoxicity assay, Vero; assay type: cell-based; details: for IC50: Chlorocebus sabaeus
Description: as §1

[4] = system: A549 lung adenocarcinoma epithelial cells; test: MTT-based cytotoxicity assay, A549; assay type: cell-based; details: Homo sapiens
Description: as §1

[5] = system: Hela Henrietta Lacks strain cancer cells; test: MTT-based cytotoxicity assay, Hela; assay type: cell-based; details: Homo sapiens
Description: as §1

[6] = system: A375 human melanoma cells; test: MTT-based cytotoxicity assay, A375; assay type: cell-based
Description: as §1

[7] = system: HepG2 hepatocellular liver carcinoma cells; test: MTT-based cytotoxicity assay, HepG2; assay type: cell-based; details: Homo sapiens
Description: as §1

[8] = system: SKOV-3 ovarian carcinoma cells; test: MTT-based cytotoxicity assay, SKOV-3; assay type: cell-based; details: Homo sapiens
Description: as §1

[9] = system: six different tumor cell lines; test: MTT-based cytotoxicity assay, six cell lines stated together
Description: as §1

[10] = HCT-116, HCT116, MTT, 48 h treatment, means ± SEM of three independent experiments, read-out: IC50
[11] = Vero normal cells, MTT, 48 h treatment, means ± SEM of three independent experiments, read-out: IC50
[12] = A549, MTT, 48 h treatment, means ± SEM of three independent experiments, read-out: IC50
[13] = Hela, MTT, 48 h treatment, means ± SEM of three independent experiments, read-out: IC50
[14] = A-375, A375, MTT, 48 h treatment, means ± SEM of three independent experiments, read-out: IC50
[15] = HepG2, MTT, 48 h treatment, means ± SEM of three independent experiments, read-out: IC50
[16] = SK-OV-3, SKOV-3, MTT, 48 h treatment, means ± SEM of three independent experiments, read-out: IC50

## O=C(COc1ccc([N+](=O)[O-])c(F)c1)Nc1cccc(Cl)c1 [Compound 3a, N-(3-Chlorophenyl)-2-(3-fluoro-4-nitrophenoxy)acetamide]
[1]; [10]
  IC50: > 40 µM
[2]
  MIC: 16 µg/mL (≈ 49.3 µM)
[3]; [11]
  IC50: > 40 µM
[4]; [12]
  IC50: > 40 µM
[5]; [13]
  IC50: > 40 µM
other
  melting point: 150 to 151 °C
[6]; [14]
  IC50: > 40 µM
[7]; [15]
  IC50: > 40 µM
[8]; [16]
  IC50: > 40 µM

## O=C(COc1ccc([N+](=O)[O-])c(F)c1)Nc1ccc(Cl)c(Cl)c1 [Compound 3b, N-(3,4-Dichlorophenyl)-2-(3-fluoro-4-nitrophenoxy)acetamide]
[2]
  MIC: 32 µg/mL (≈ 89.1 µM)
other
  melting point: 175 to 176 °C

## O=C(COc1ccc([N+](=O)[O-])c(F)c1)Nc1ccc(Br)cc1F [Compound 3c, N-(4-Bromo-2-fluorophenyl)-2-(3-fluoro-4-nitrophenoxy)acetamide]
[2]
  MIC: 32 µg/mL (≈ 82.7 µM)
other
  melting point: 160 to 162 °C

## O=C(COc1ccc([N+](=O)[O-])c(F)c1)Nc1ccc(Cl)c(C(F)(F)F)c1 [Compound 3d, N-(4-Chloro-3-(trifluoromethyl)phenyl)-2-(3-fluoro-4-nitrophenoxy)acetamide]
[1]; [10]
  IC50: > 40 µM
[2]
  MIC: 16 µg/mL (≈ 40.7 µM)
[3]; [11]
  IC50: > 40 µM
[4]; [12]
  IC50: > 40 µM
[5]; [13]
  IC50: 33.2 ± 2.5 µM
other
  melting point: 163 to 164 °C
[6]; [14]
  IC50: > 40 µM
[7]; [15]
  IC50: > 40 µM
[8]; [16]
  IC50: > 40 µM

## O=C(COc1ccc([N+](=O)[O-])c(F)c1)Nc1cccc([N+](=O)[O-])c1 [Compound 3e, 2-(3-Fluoro-4-nitrophenoxy)-N-(3-nitrophenyl)acetamide]
[2]
  MIC: 64 µg/mL (≈ 191 µM)
other
  melting point: 199 to 201 °C

## COc1ccc(NC(=O)COc2ccc([N+](=O)[O-])c(F)c2)c(OC)c1 [Compound 3f, N-(2,4-Dimethoxyphenyl)-2-(3-fluoro-4-nitrophenoxy)acetamide]
[2]
  MIC: 64 µg/mL (≈ 183 µM)
other
  melting point: 174 to 175 °C

## O=C(COc1ccc([N+](=O)[O-])c(F)c1)Nc1cc(C(F)(F)F)cc(C(F)(F)F)c1 [Compound 3g, N-(3,5-bis(Trifluoromethyl)phenyl)-2-(3-fluoro-4-nitrophenoxy)acetamide]
[1]; [10]
  IC50: 33.8 ± 2 µM
[2]
  MIC: 8 µg/mL (≈ 18.8 µM)
[3]; [11]
  IC50: > 40 µM
[4]; [12]
  IC50: 38.2 ± 1.5 µM
[5]; [13]
  IC50: 20 ± 1.1 µM
other
  melting point: 168 to 169 °C
[6]; [14]
  IC50: 22.6 ± 0.9 µM
[7]; [15]
  IC50: 21.6 ± 1.1 µM
[8]; [16]
  IC50: 12.2 ± 1.3 µM

## O=C(COc1ccc([N+](=O)[O-])c(F)c1)Nc1ccc(F)c(Cl)c1 [Compound 3h, N-(3-Chloro-4-fluorophenyl)-2-(3-fluoro-4-nitrophenoxy)acetamide]
[1]; [10]
  IC50: > 40 µM
[2]
  MIC: 16 µg/mL (≈ 46.7 µM)
[3]; [11]
  IC50: > 40 µM
[4]; [12]
  IC50: > 40 µM
[5]; [13]
  IC50: > 40 µM
other
  melting point: 166 to 167 °C
[6]; [14]
  IC50: > 40 µM
[7]; [15]
  IC50: > 40 µM
[8]; [16]
  IC50: > 40 µM

## O=C(COc1ccc([N+](=O)[O-])c(F)c1)Nc1ccc(Br)cc1 [Compound 3i, N-(4-Bromophenyl)-2-(3-fluoro-4-nitrophenoxy)acetamide]
[2]
  MIC: 32 µg/mL (≈ 86.7 µM)
other
  melting point: 166 to 167 °C

## N#Cc1ccccc1NC(=O)COc1ccc([N+](=O)[O-])c(F)c1 [Compound 3j, N-(2-Cyanophenyl)-2-(3-fluoro-4-nitrophenoxy)acetamide]
[2]
  MIC: 64 µg/mL (≈ 203 µM)
other
  melting point: 172 to 174 °C

## O=C(COc1ccc([N+](=O)[O-])c(F)c1)Nc1ccccc1C(F)(F)F [Compound 3k, 2-(3-Fluoro-4-nitrophenoxy)-N-(2-(trifluoromethyl)phenyl)acetamide]
[2]
  MIC: 64 µg/mL (≈ 179 µM)
other
  melting point: 146 to 147 °C

## O=C(COc1ccc([N+](=O)[O-])c(F)c1)Nc1ccc(OC(F)(F)F)cc1 [Compound 3l, 2-(3-Fluoro-4-nitrophenoxy)-N-(4-(trifluoromethoxy)phenyl)acetamide]
[2]
  MIC: 32 µg/mL (≈ 85.5 µM)
other
  melting point: 146 to 148 °C

## O=C(COc1ccc([N+](=O)[O-])c(F)c1)Nc1ccccc1[N+](=O)[O-] [Compound 3m, 2-(3-Fluoro-4-nitrophenoxy)-N-(2-nitrophenyl)acetamide]
[1]; HCT-116, 48 h
  IC50: > 40 µM
[2]
  MIC: 4 µg/mL (≈ 11.9 µM)
[3]; Vero, 48 h
  IC50: > 40 µM
[3]; MTT assay, result in words
  safety profile in a vero cell line: good safety profile
[4]; A549, 48 h
  IC50: > 40 µM
[9]; one bound stated for all six cell lines, read-out: IC50 against the tested six different cell lines
  IC50: > 40 µM
[9]; result in words
  inhibitory effects against six different tumor cell lines: no inhibitory effects
  safety profile / toxicity in six different cell lines: good safety profile
[5]; HeLa, 48 h
  IC50: > 40 µM
other
  melting point: 201 to 202 °C
[6]; A-375, 48 h
  IC50: > 40 µM
[7]; HepG2, 48 h
  IC50: > 40 µM
[8]; SK-OV-3, 48 h
  IC50: > 40 µM

## O=C(COc1ccc([N+](=O)[O-])c(F)c1)Nc1ccc(Br)cc1Cl [Compound 3n, N-(4-Bromo-2-chlorophenyl)-2-(3-fluoro-4-nitrophenoxy)acetamide]
[2]
  MIC: 32 µg/mL (≈ 79.3 µM)
other
  melting point: 173 to 175 °C

## O=C(COc1ccc([N+](=O)[O-])c(F)c1)Nc1ccc(C(F)(F)F)cc1 [Compound 3o, 2-(3-Fluoro-4-nitrophenoxy)-N-(4-(trifluoromethyl)phenyl)acetamide]
[1]; [10]
  IC50: > 40 µM
[2]
  MIC: 16 µg/mL (≈ 44.7 µM)
[3]; [11]
  IC50: > 40 µM
[4]; [12]
  IC50: > 40 µM
[5]; [13]
  IC50: 33.8 ± 1.7 µM
other
  melting point: 173 to 175 °C
[6]; [14]
  IC50: 28.3 ± 1.2 µM
[7]; [15]
  IC50: > 40 µM
[8]; [16]
  IC50: 28.6 ± 2.3 µM

## Cc1ccc([N+](=O)[O-])cc1NC(=O)COc1ccc([N+](=O)[O-])c(F)c1 [Compound 3p, 2-(3-Fluoro-4-nitrophenoxy)-N-(2-methyl-5-nitrophenyl)acetamide]
[2]
  MIC: 64 µg/mL (≈ 183 µM)
other
  melting point: 211 to 213 °C

## COC(=O)COc1ccc(NC(=O)COc2ccc(C)cc2C)cc1 [I, methyl 2-(4-(2-(2,4-dimethylphenoxy)acetamido)phenoxy)acetate]
[2]
  MIC: 4 µg/mL (≈ 11.6 µM)

## NNC(=O)c1ccncc1 [Isoniazide]
[2]
  MIC: 0.0625 µg/mL (≈ 0.456 µM)
